From patent US9284335B2, “Substituted pyrido[3,2-e][1,2,4]triazolo[1,5-c]pyrimidines, pyrido[2,3-e][1,2,4]triazolo[1,5-c]pyrimidines and/or [1,2,4]triazolo[1,5-c]pteridines for treatment of central nervous system diseases and disorders” (DART NEUROSCIENCE (CAYMAN) LTD., priority 2012, dated 2016)

Test system: NS1 cells
Assay: Neurite outgrowth (NOG) assay
Assay type: cell-based
Method: Neuroscreen 1 (NS1) Cells (Cellomics Inc.) were cultured on collagen type I coated 75 cm2 plastic flasks (Biocoat, Becton Dickinson) in a humidified incubator at 37° C. in 5% CO2. Cells were cultured in RPMI complete cell culture medium (Cambrex) supplemented with 10% heat-inactivated horse serum (Invitrogen), 5% heat-inactivated fetal bovine serum (Cellgro), and 2 mM L-glutamine (Cambrex). For expansion, the cells were trypsinized and split at 80% confluence. Cell culture media was changed every 2 to 3 days.
NS1 cells were harvested and counted using a Coulter counter (Becton Dickinson Coulter Z1). Cells were seeded in 96-well collagen I coated plates at a density of 2000 cells per well in volume of 200 μl. RPMI media was supplemented with 200 ng/ml nerve growth factor (NGF, Sigma). NS1 cells were incubated for 72 hours to allow differentiation to a neuronal phenotype. […]
Antibody-stained 96-well plates were stored at 4° C. in the dark until scanning. […] The neurite outgrowth assay is based on two channels to scanning: (1) Channel 1, which detects the Hoechst Dye and is used by the software to identify cells and for automated focusing; and (2) Channel 2, which detects the FITC fluorescence of the secondary antibody and is used by the software to calculate all data generated in reference to neurites. […]

COc1ccc(C2CNC(=O)C2)cc1OC1CCCC1 (centres unmarked) [Rolipram]
neurite length and branching / neurite outgrowth (in combination with forskolin): enhanced in dose-dependent manner
neurite length and branching / neurite outgrowth (without forskolin): not affected
